Measurements as given in US20150289513A1, “USE OF A COMPOUND COMPRISING A POLYFLUOROBENZYL MOIETY AGAINST INSECTICIDE-RESISTANT PESTS” (priority 2012, published 2015).

Assays:
[1] = tested on: Anopheles gambiae (target-site-resistant and metabolic-resistant strain: RSPH); assay: Glazed tile contact test, knock-down; assay type: in vivo
Protocol: (§1) To produce a suitable preparation Transfluthrin was dissolved in acetone. The active compound solution was pipetted onto a glazed tile and, after drying, adult mosquitoes of the species: • Anopheles gambiae (target-site-resistant and metabolic-resistant strain: RSPH), • Anopheles gambiae (target-site-resitant and metabolic-resistant strain: Tiassalé), • Anopheles gambiae (tar et-site-resitant and metabolic-resistant strain: Akron), • Anopheles gambiae (target-site-resistant strain: VK7), and • Anopheles funestus (metabolic-resistant strain FUMOZ-R) were placed onto the treated tile (each strain was tested on separate tiles). The exposition time was 30 minutes.
(§2) 0.25 hours, 0.5 hours, 1 hour, 2 hour, 3 hour, 4 hour and 24 hours after contact to the treated surface, the knock-down proportion of the test animals in % was determined. Here, 100% (effect) means that all mosquitoes have been killed; 0% (effect) means that none of the mosquitoes have been killed.
Similarly as outlined in example 2 for Transfluthrin, Metofluthrin efficacy was assessed against • Anopheles gambiae (target-site-resistant and metabolic-resistant strain: RSPH), • Anopheles funestus (metabolic-resistant strain FUMOZ-R), and • Culex quinquefasciatus (metabolic-resistant to DDT; strain P00), with the results shown in Tables 10 to 12. 0.25 hours, 0.5 hours, 1 hour, 2 hour, 3 hour, 4 hour and 24 hours after contact to the treated surface, the knock-down proportion of the test animals in % is depicted in Tables 10 to 12. 100% (effect) means that all mosquitoes have been killed; 0% (effect) means that none of the mosquitoes have been killed.
Similarly as outlined in example 2 for Transfluthrin, Metofluthrin efficacy was assessed against • Anopheles gambiae (target-site-resistant and metabolic-resistant strain: RSPH), • Anopheles funestus (metabolic-resistant strain FUMOZ-R), and with the results shown in Tables […]. 0.25 hours, 0.5 hours, 1 hour, 2 hour and 3 hours after contact to the treated surface, the knock-down proportion of the test animals in % is depicted in Tables 13 to 14. 100% (effect) means that all mosquitoes have been killed; 0% (effect) means that none of the mosquitoes have been killed.

[2] = tested on: Anopheles gambiae (target-site-resistant strain: VK7); assay: Glazed tile contact test, knock-down; assay type: in vivo
Protocol: as §1, §2

[3] = 0.064 g/ha, 0.25 h after contact
[4] = 0.064 g/ha, 0.5 h after contact
[5] = 0.32 g/ha, 0.25 h after contact

CC=CC1C(C(=O)OCc2c(F)c(F)c(COC)c(F)c2F)C1(C)C (stereo not shown) [Metofluthrin, 2,3,5,6-Tetrafluoro-4-(methoxymethyl)benzyl 2,2-dimethyl-3-(prop-1-en-1-yl)cyclopropanecarboxylate]
Effect % [1, 3]: 0% | Effect % [1, 4]: 0% | Effect % ([1]; 0.064 g/ha, 1 h after contact): 0% | Effect % ([1]; 0.064 g/ha, 2 h after contact): 0% | Effect % ([1]; 0.064 g/ha, 3 h after contact): 0% | Effect % ([1]; 0.064 g/ha, 4 h after contact): 10% | Effect % ([1]; 0.064 g/ha, 24 h after contact): 20% | Effect % [1, 5]: 0% | Effect % ([1]; 0.32 g/ha, 0.5 h after contact): 10% | Effect % ([1]; 0.32 g/ha, 1 h after contact): 10% | Effect % ([1]; 0.32 g/ha, 2 h after contact): 10% | Effect % ([1]; 0.32 g/ha, 3 h after contact): 0% | Effect % ([1]; 0.32 g/ha, 4 h after contact): 10% | Effect % ([1]; 0.32 g/ha, 24 h after contact): 20% | Effect % ([1]; 1.6 g/ha, 0.25 h after contact): 100% | Effect % ([1]; 1.6 g/ha, 0.5 h after contact): 100% | Effect % ([1]; 1.6 g/ha, 1 h after contact): 100% | Effect % ([1]; 1.6 g/ha, 2 h after contact): 100% | Effect % ([1]; 1.6 g/ha, 3 h after contact): 100% | Effect % ([1]; 1.6 g/ha, 4 h after contact): 100% | Effect % ([1]; 1.6 g/ha, 24 h after contact): 100% | Effect % ([1]; 8 g/ha, 0.25 h after contact): 100% | Effect % ([1]; 8 g/ha, 0.5 h after contact): 100% | Effect % ([1]; 8 g/ha, 1 h after contact): 100% | Effect % ([1]; 8 g/ha, 2 h after contact): 100% | Effect % ([1]; 8 g/ha, 3 h after contact): 100% | Effect % ([1]; 8 g/ha, 4 h after contact): 100% | Effect % ([1]; 8 g/ha, 24 h after contact): 100% | Effect % ([1]; 40 g/ha, 0.25 h after contact): 100% | Effect % ([1]; 40 g/ha, 0.5 h after contact): 100% | Effect % ([1]; 40 g/ha, 1 h after contact): 100% | Effect % ([1]; 40 g/ha, 2 h after contact): 100% | Effect % ([1]; 40 g/ha, 3 h after contact): 100% | Effect % ([1]; 40 g/ha, 4 h after contact): 100% | Effect % ([1]; 40 g/ha, 24 h after contact): 100% | Effect % ([1]; 200 g/ha, 0.25 h after contact): 100% | Effect % ([1]; 200 g/ha, 0.5 h after contact): 100% | Effect % ([1]; 200 g/ha, 1 h after contact): 100% | Effect % ([1]; 200 g/ha, 2 h after contact): 100% | Effect % ([1]; 200 g/ha, 3 h after contact): 100% | Effect % ([1]; 200 g/ha, 4 h after contact): 100% | Effect % ([1]; 200 g/ha, 24 h after contact): 100% | Effect % ([1]; 1000 g/ha, 0.25 h after contact): 100% | Effect % ([1]; 1000 g/ha, 0.5 h after contact): 100% | Effect % ([1]; 1000 g/ha, 1 h after contact): 100% | Effect % ([1]; 1000 g/ha, 2 h after contact): 100% | Effect % ([1]; 1000 g/ha, 3 h after contact): 100% | Effect % ([1]; 1000 g/ha, 4 h after contact): 100% | Effect % ([1]; 1000 g/ha, 24 h after contact): 100%

CC1(C)[C@H](C=C(Cl)Cl)[C@H]1C(=O)OCc1c(F)c(F)cc(F)c1F [Transfluthrin, (1R,3S)-3-(2,2-Dichlorovinyl)-2,2-dimethyl-1-cyclopropanecarboxylic acid (2,3,5,6-tetrafluorophenyl)methyl ester]
Effect % [2, 3]: 5% | Effect % [2, 4]: 5% | Effect % ([2]; 0.064 g/ha, 1 h after contact): 5% | Effect % ([2]; 0.064 g/ha, 2 h after contact): 15% | Effect % ([2]; 0.064 g/ha, 3 h after contact): 15% | Effect % ([2]; 0.064 g/ha, 4 h after contact): 15% | Effect % ([2]; 0.064 g/ha, 24 h after contact): 25% | Effect % [2, 5]: 25% | Effect % ([2]; 0.32 g/ha, 0.5 h after contact): 35% | Effect % ([2]; 0.32 g/ha, 1 h after contact): 20% | Effect % ([2]; 0.32 g/ha, 2 h after contact): 20% | Effect % ([2]; 0.32 g/ha, 3 h after contact): 20% | Effect % ([2]; 0.32 g/ha, 4 h after contact): 25% | Effect % ([2]; 0.32 g/ha, 24 h after contact): 30% | Effect % ([2]; 1.6 g/ha, 0.25 h after contact): 80% | Effect % ([2]; 1.6 g/ha, 0.5 h after contact): 90% | Effect % ([2]; 1.6 g/ha, 1 h after contact): 85% | Effect % ([2]; 1.6 g/ha, 2 h after contact): 80% | Effect % ([2]; 1.6 g/ha, 3 h after contact): 65% | Effect % ([2]; 1.6 g/ha, 4 h after contact): 85% | Effect % ([2]; 1.6 g/ha, 24 h after contact): 65% | Effect % ([2]; 8 g/ha, 0.25 h after contact): 100% | Effect % ([2]; 8 g/ha, 0.5 h after contact): 100% | Effect % ([2]; 8 g/ha, 1 h after contact): 100% | Effect % ([2]; 8 g/ha, 2 h after contact): 100% | Effect % ([2]; 8 g/ha, 3 h after contact): 100% | Effect % ([2]; 8 g/ha, 4 h after contact): 100% | Effect % ([2]; 8 g/ha, 24 h after contact): 100% | Effect % ([2]; 40 g/ha, 0.25 h after contact): 100% | Effect % ([2]; 40 g/ha, 0.5 h after contact): 100% | Effect % ([2]; 40 g/ha, 1 h after contact): 100% | Effect % ([2]; 40 g/ha, 2 h after contact): 100% | Effect % ([2]; 40 g/ha, 3 h after contact): 100% | Effect % ([2]; 40 g/ha, 4 h after contact): 100% | Effect % ([2]; 40 g/ha, 24 h after contact): 100% | Effect % ([2]; 200 g/ha, 0.25 h after contact): 100% | Effect % ([2]; 200 g/ha, 0.5 h after contact): 100% | Effect % ([2]; 200 g/ha, 1 h after contact): 100% | Effect % ([2]; 200 g/ha, 2 h after contact): 100% | Effect % ([2]; 200 g/ha, 3 h after contact): 100% | Effect % ([2]; 200 g/ha, 4 h after contact): 100% | Effect % ([2]; 200 g/ha, 24 h after contact): 100%
